Laboratory results reported in US20230286923A1 (INIPHARM, INC., priority 2020, published 2023).

Legend:
HSD17B13 enzyme [1] = molecular target: T1, HSD17B13 enzyme (Homo sapiens (Human), UniProt Q7Z5P4); test: Estrone detection assay (LC/MS, conversion of estradiol to estrone) for HSD17B13 activity; type: biochemical; conditions: substrate 4 µM estradiol, 6 mM NAD+, 30 nM enzyme
Description: The liquid chromatography/mass spectrometry (LC/MS) estrone detection assay monitors the conversion of estradiol to estrone by HSD17B13. This assay was undertaken in a 96wp format (Eppendorf deep well Plate 96/500) in an 80 µl reaction volume containing: 4 µM of Estradiol (E2; Cayman; #10006315), 6 mM NAD^+ (Sigma; #N0623) and 30 nM HSD17B13 enzyme (in-house; E. coli expressed His-tagged, purified, soluble protein) in a reaction containing 1 M potassium phosphate buffer pH 7.4, with 0.5% vehicle (DMSO). Reactions were incubated for 2 hours at 26.5° C., and estradiol (E2) conversion to estrone (E1) was quantitated by LC-MS/MS based analyte detection for both E2 and E1 using LCMS grade reagents.
Reactions were terminated by the addition of two volumes of acetonitrile (MeCN; LCMS grade; CAS# 75/05/8) containing deuterated (D4)-E1 used as internal standard (Clear Synth; #CS-T-54273; 500 ng/mL final concentration). Samples were applied to pre-prepared Bond Elut-C18 extraction cartridges (3 mL; Agilent; #12102028), washed and eluted in MeCN. Eluates were dried under nitrogen and re-suspended in 60% methanol (LCMS grade methanol; CAS# 67/56/1) before submission for analysis. Aqueous linearity for E2 and E1 were included for quantification.
Analysis of samples was undertaken on a XBridge BEH C18 column (Waters; #186003033) using 0.1% Diethyl Amine in MeCN (mobile phase A; DEA CAS# 109-89-7) and 0.1% Diethyl Amine in milli-Q water (mobile phase B) in a 3 min gradient allowing 25%B. Analytes were detected in negative mode using MRM analysis, with E2 having a RT of 1.85 min and E1 having a RT of 2 min. Activity of the enzyme, in the absence of NAD^+, was used to evaluate specificity of conversion. Enzyme activity in the presence of test samples was expressed as a percentage of the uninhibited enzyme activity, and plotted versus inhibitor concentration. Non-linear regression was performed using a four-parameter logistic model and GraphPad Prism software (GraphPad Software, La Jolla, CA). All assessments were undertaken in duplicate evaluations and pooled during extraction process and subsequently injected as duplicates for LC-MS/MS analysis.

HSD17B13 enzyme [2] = molecular target: T1, HSD17B13 enzyme; test: NADH detection assay (fluorescence based LTB3 assay) for HSD17B13 activity; type: biochemical; conditions: substrate 25 µM LTB3, 3 mM NAD+, 125 nM enzyme
Description: The fluorescence based Leukotriene B3 (LTB3) assay monitors the fluorescence of NADH, which is generated from NAD+ during the dehydrogenation of the substrate LTB3. The reactions were performed in a 384-well plates (Greiner; #655076) in a 20 µl reaction volume containing the following reagents (final concentrations): 25 µM LTB3 (Cayman; #20109); 3 mM NAD^+ (Sigma; #N0623); 125 nM HSD17B13 enzyme (in-house; E. coli expressed His-tagged, purified, soluble protein); 1 M potassium phosphate buffer, pH 7.4; and 1% DMSO. Reactions were initiated by co-addition of NAD+ and enzyme, and monitored for 1 hour at 26.5° C. Generation of NADH was measured as the fluorescence signal (Excitation at 340 nm and Emission at 445 nm) at 1 hour minus the baseline fluorescence at t=0. Fluorescence signals in the absence of LTB3 (negative control values), were subtracted from all values so that the results reflected substrate-dependent production of NADH. NADH standards were included to allow the conversion of relative fluorescence units into rates of enzyme activity. Enzyme activity in the presence of test compounds was expressed as a percentage of the uninhibited enzyme activity, and plotted versus inhibitor concentration. Non-linear regression was performed using a four-parameter logistic model and Microsoft Excel Solver software Ten concentrations of inhibitor were tested in duplicate (in the range of 30 µM - 2.5 nM), and two independent concentration response assays were performed.

T1 sequence (Q7Z5P4 20-300): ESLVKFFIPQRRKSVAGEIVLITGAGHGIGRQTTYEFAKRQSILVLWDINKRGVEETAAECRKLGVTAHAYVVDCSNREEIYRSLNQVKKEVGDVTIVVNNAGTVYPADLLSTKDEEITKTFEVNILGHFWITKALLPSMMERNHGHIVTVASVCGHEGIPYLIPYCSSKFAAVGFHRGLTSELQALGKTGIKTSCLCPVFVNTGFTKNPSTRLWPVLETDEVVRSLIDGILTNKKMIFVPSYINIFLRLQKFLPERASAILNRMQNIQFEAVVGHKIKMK

Row | Structure (SMILES) | IC50 (HSD17B13 enzyme [1]) [µM] | IC50 (HSD17B13 enzyme [2]) [µM]
1 | Cn1c(-c2cccnc2)nc2cccc(NC(=O)c3ccc(-c4nnn[nH]4)c(F)c3)c2c1=O [Example 17, 3-fluoro-N-(3-methyl-4-oxo-2-(pyridin-3-yl)-3,4-dihydroquinazolin-5-yl)-4-(1H-tetrazol-5-yl)benzamide] | > 10 | > 10
2 | COc1ccccc1CCn1cnc2cccc(NC(=O)c3ccc(O)c(C(C)(C)C)c3)c2c1=O [Example 31, 3-(tert-butyl)-4-hydroxy-N-(3-(2-methoxyphenethyl)-4-oxo-3,4-dihydroquinazolin-5-yl)benzamide] | > 10 | > 10
3 | CC(C)(C)CCn1cnc2cccc(NC(=O)c3ccc(S(=O)(=O)NC(=O)c4cccnc4)c(Cl)c3)c2c1=O [Example 16, N-((2-chloro-4-((3-(3,3-dimethylbutyl)-4-oxo-3,4-dihydroquinazolin-5-yl)carbamoyl)phenyl)sulfonyl)nicotinamide] | 1 to 10 | 5 to 10
4 | COc1ccccc1CCn1cnc2cccc(NC(=O)c3cc(Cl)c4[nH]c(=O)[nH]c4c3)c2c1=O [Example 19, 7-chloro-N-(3-(2-methoxyphenethyl)-4-oxo-3,4-dihydroquinazolin-5-yl)-2-oxo-2,3-dihydro-1H-benzo[d]imidazole-5-carboxamide] | > 10 | 1 to 5
5 | COc1ccccc1CCn1cnc2sc(C)c(NC(=O)c3ccc(O)c(Cl)c3)c2c1=O [Example 34, 3-chloro-4-hydroxy-N-(3-(2-methoxyphenethyl)-6-methyl-4-oxo-3,4-dihydrothieno[2,3-d]pyrimidin-5-yl)benzamide] | ≤ 0.1 | ≤ 1

Results, then the compound that gave them:

Row | IC50 (HSD17B13 enzyme [1]) [µM] | IC50 (HSD17B13 enzyme [2]) [µM] | Structure (SMILES)
6 | > 10 | > 10 | COc1ccccc1CCn1cnc2cccc(NC(=O)c3ccc(-c4cn[nH]c4)c(F)c3)c2c1=O [Example 21, 3-fluoro-N-(3-(2-methoxyphenethyl)-4-oxo-3,4-dihydroquinazolin-5-yl)-4-(1H-pyrazol-4-yl)benzamide]
7 | ≤ 0.1 | ≤ 1 | COc1ccccc1CCn1cnc2cccc(NC(=O)c3ccc(O)c(C(F)(F)F)c3)c2c1=O [Example 32, 4-hydroxy-N-(3-(2-methoxyphenethyl)-4-oxo-3,4-dihydroquinazolin-5-yl)-3-(trifluoromethyl)benzamide]
8 | 1 to 10 | > 10 | COc1ccccc1CCn1cnc2cccc(NC(=O)c3ccc(-c4cnn[nH]4)c(F)c3)c2c1=O [Example 26, 3-fluoro-N-(3-(2-methoxyphenethyl)-4-oxo-3,4-dihydroquinazolin-5-yl)-4-(1H-1,2,3-triazol-5-yl)benzamide]
9 | 1 to 10 | > 10 | COc1ccccc1CCn1cnc2cccc(NC(=O)c3ccc(C(=O)O)c(Cl)c3)c2c1=O [Example 5, 2-chloro-4-((3-(2-methoxyphenethyl)-4-oxo-3,4-dihydroquinazolin-5-yl)carbamoyl)benzoic acid]
10 | 1 to 10 | > 10 | COc1ccccc1CCn1cnc2cccc(NC(=O)c3ccc(CC(=O)O)c(F)c3)c2c1=O [Example 25, 2-(2-fluoro-4-((3-(2-methoxyphenethyl)-4-oxo-3,4-dihydroquinazolin-5-yl)carbamoyl)phenyl)acetic acid]
